Assay results published in ChEMBL document CHEMBL1138044, “4-amido-2-aryl-1,2,4-triazolo[4,3-a]quinoxalin-1-ones as new potent and selective human A3 adenosine receptor antagonists. synthesis, pharmacological evaluation, and ligand-receptor modeling studies” (J Med Chem, 2006).

Legend:
[1] = target: T1, Adenosine receptor A3 (Homo sapiens, UniProt P0DMS8); experiment: Displacement of [125I]AB-MECA from human adenosine A3 receptor expressed in CHO cells; format: cell-based
T1 sequence (P0DMS8 whole entry): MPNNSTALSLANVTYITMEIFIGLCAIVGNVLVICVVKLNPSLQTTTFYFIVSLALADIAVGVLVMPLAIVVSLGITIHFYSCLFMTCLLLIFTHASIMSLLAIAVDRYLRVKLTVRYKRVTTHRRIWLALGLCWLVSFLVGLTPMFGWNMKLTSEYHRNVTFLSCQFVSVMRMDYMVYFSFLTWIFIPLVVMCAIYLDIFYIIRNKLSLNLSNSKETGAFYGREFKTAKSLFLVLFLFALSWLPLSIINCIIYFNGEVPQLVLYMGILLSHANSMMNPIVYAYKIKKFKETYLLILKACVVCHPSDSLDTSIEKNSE

[2] = target: T2, Adenosine receptor A1 (Bos taurus) (UniProt P28190); experiment: Inhibition of [3H]DPCPX binding to adenosine A1 receptor in bovine brain membranes at 10 uM; format: cell membranes
T2 sequence (whole entry): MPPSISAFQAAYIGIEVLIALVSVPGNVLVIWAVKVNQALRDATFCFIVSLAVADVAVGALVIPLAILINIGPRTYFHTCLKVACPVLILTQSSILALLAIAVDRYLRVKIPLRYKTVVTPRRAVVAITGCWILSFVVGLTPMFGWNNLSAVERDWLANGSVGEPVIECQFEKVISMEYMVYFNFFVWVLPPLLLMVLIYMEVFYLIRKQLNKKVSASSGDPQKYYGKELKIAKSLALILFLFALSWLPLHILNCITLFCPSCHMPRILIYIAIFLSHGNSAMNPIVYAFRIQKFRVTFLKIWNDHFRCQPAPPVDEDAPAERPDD

[3] = test system: Adenosine receptor A2a (Bos taurus); experiment: Inhibition of [3H]CGS 21680 binding to adenosine A2A receptor in bovine striatal membranes at 10 uM; details: Striatum, Membrane
[4] = target: T3, Adenosine receptor A2a (Homo sapiens, UniProt P29274); experiment: Displacement of [3H]NECA from human adenosine A2A receptor expressed in CHO cells; format: cell-based
T3 sequence (P29274 whole entry): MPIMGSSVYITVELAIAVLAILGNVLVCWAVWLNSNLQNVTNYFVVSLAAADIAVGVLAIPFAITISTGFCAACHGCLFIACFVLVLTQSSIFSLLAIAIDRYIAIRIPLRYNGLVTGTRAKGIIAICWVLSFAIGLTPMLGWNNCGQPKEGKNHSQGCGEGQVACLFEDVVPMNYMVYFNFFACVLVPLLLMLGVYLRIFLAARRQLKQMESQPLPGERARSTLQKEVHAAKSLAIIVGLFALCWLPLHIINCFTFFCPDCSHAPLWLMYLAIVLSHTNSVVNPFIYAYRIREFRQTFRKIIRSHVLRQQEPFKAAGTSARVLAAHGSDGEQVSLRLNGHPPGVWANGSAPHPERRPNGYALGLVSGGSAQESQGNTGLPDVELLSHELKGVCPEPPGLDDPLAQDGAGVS

[5] = target: T4, Adenosine receptor A1 (Homo sapiens) (UniProt P30542); experiment: Inhibition of [3H]DPCPX binding to human adenosine A1 receptor at 10 uM
T4 sequence (whole entry): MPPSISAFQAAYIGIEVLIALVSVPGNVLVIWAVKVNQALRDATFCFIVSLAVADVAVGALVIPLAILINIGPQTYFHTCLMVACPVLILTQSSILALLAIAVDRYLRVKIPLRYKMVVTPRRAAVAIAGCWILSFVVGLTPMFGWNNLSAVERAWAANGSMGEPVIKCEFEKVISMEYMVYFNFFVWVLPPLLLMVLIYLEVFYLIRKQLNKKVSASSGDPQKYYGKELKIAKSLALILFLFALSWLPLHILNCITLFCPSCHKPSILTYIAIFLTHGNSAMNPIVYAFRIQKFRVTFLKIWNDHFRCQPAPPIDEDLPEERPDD

[6] = target: T5, Adenosine receptor A1 (Bos taurus, UniProt P28190); experiment: Displacement of [3H]DPCPX from adenosine A1 receptor in bovine brain membranes; format: cell membranes
T5 sequence (P28190 whole entry): T2 sequence (whole entry)

[7] = target: T6, Adenosine receptor A2b (Homo sapiens, UniProt P29275); experiment: Inhibition of NECA-stimulated cAMP level in CHO cells transfected with human adenosine A2B receptor; format: functional, cell-based
T6 sequence (P29275 whole entry): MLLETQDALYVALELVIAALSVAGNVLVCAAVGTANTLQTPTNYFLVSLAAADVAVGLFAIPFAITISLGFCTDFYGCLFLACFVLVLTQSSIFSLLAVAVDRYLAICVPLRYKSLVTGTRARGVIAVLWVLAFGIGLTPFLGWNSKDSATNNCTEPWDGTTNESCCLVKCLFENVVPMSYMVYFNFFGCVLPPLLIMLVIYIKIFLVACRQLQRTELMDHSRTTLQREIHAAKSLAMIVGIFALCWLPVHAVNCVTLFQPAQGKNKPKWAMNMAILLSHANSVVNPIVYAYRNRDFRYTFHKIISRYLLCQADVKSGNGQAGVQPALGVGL

[8] = target: T7, Adenosine receptor A2b (Homo sapiens) (UniProt P29275); experiment: Inhibition of NECA-stimulated cAMP level in CHO cells transfected with human adenosine A2B receptor at 1 uM; format: functional, cell-based
T7 sequence (whole entry): T6 sequence (P29275 whole entry)

[9] = target: T1, Adenosine receptor A3; experiment: Antagonist activity against Cl-IB-MECA inhibited cAMP level in CHO cells transfected with human A3 receptor; format: functional, cell-based
[10] = target: T3, Adenosine receptor A2a; experiment: Inhibition of [3H]NECA binding to human adenosine A2A receptor at 10 uM
[11] = target: T8, Adenosine receptor A1 (Homo sapiens, UniProt P30542); experiment: Displacement of [3H]DPCPX from human adenosine A1 receptor expressed in CHO cells; format: cell-based
T8 sequence (P30542 whole entry): T4 sequence (whole entry)

[12] = target: T9, Adenosine receptor A3 (Homo sapiens) (UniProt P0DMS8); experiment: Inhibition of [125I]AB-MECA binding to human adenosine A3 receptor at 1 uM
T9 sequence (whole entry): T1 sequence (P0DMS8 whole entry)

[13] = target: Adenosine receptor A2a (Bos taurus); experiment: Displacement of [3H]CGS 21680 from adenosine A2A receptor in bovine striatal membranes

SMILES	Ki [1] [µM]	inhibition [3] [%]	inhibition [5] [%]	Ki [6] [µM]	inhibition [10] [%]	further results
COc1ccc(-n2nc3c(NC(=O)c4ccccc4)nc4c([N+](=O)[O-])cccc4n3c2=O)cc1	0.217	15				inhibition [2]: 35%
Nc1cccc2c1nc(NC(=O)C(c1ccccc1)c1ccccc1)c1nn(-c3ccccc3)c(=O)n12	0.00865	12	2.5	0.0016		Ki [4]: 0.627 µM
COc1ccc(-n2nc3c(NC(=O)c4ccccc4)nc4ccccc4n3c2=O)cc1	0.0029	23	37	1.01		Ki [4]: 3.58 µM
COc1ccc(-n2nc3c(NC(=O)C(c4ccccc4)c4ccccc4)nc4ccccc4n3c2=O)cc1	0.044		25	0.0072		IC50 [7]: > 1 µM; inhibition [8]: 37%; IC50 [9]: 0.215 µM
COc1ccc(-n2nc3c(N(C(=O)c4ccccc4)C(=O)c4ccccc4)nc4c([N+](=O)[O-])cccc4n3c2=O)cc1	0.343					inhibition [2]: 20%
O=C(c1ccccc1)N(C(=O)c1ccccc1)c1nc2ccccc2n2c(=O)n(-c3ccccc3)nc12	0.0052		1	0.03	43	IC50 [7]: > 1 µM; inhibition [8]: 15%; IC50 [9]: 0.0283 µM
Nc1cccc2c1nc(NC(=O)c1ccccc1)c1nn(-c3ccccc3)c(=O)n12	0.022	27.8		0.042		Ki [4]: 4.85 µM; Ki [11]: 0.098 µM
O=C(Nc1nc2ccccc2n2c(=O)n(-c3ccccc3)nc12)c1ccccc1						Ki [4]: 0.0882 µM; Ki [11]: 0.0878 µM
Nc1cccc2c1nc(N(C(=O)c1ccccc1)C(=O)c1ccccc1)c1nn(-c3ccccc3)c(=O)n12	1.24	36		0.079		
O=C(Nc1nc2ccccc2n2c(=O)n(-c3ccc([N+](=O)[O-])cc3)nc12)c1ccccc1	0.1	26				inhibition [2]: 55%
CC(=O)Nc1nc2ccccc2n2c(=O)n(-c3ccccc3)nc12					22	Ki [11]: 2 µM
COc1ccc(-n2nc3c(NC(=O)C(c4ccccc4)c4ccccc4)nc4c([N+](=O)[O-])cccc4n3c2=O)cc1		0	11	0.26	2	
COc1ccc(-n2nc3c(NC(=O)C(c4ccccc4)c4ccccc4)nc4c(N)cccc4n3c2=O)cc1	0.00258	0	0	0.0775	31	
O=C(Nc1nc2c([N+](=O)[O-])cccc2n2c(=O)n(-c3ccccc3)nc12)c1ccccc1	0.022	0	15		25	inhibition [2]: 32%
CC(=O)Nc1nc2c(N)cccc2n2c(=O)n(-c3ccccc3)nc12	0.048		32	0.001		
COc1ccc(-n2nc3c(NC(C)=O)nc4ccccc4n3c2=O)cc1	0.0357		34	0.245	6	
COc1ccc(-n2nc3c(NC(C)=O)nc4c([N+](=O)[O-])cccc4n3c2=O)cc1		7				inhibition [12]: 36%; inhibition [2]: 0%
O=C(c1ccccc1)N(C(=O)c1ccccc1)c1nc2c([N+](=O)[O-])cccc2n2c(=O)n(-c3ccccc3)nc12		0				inhibition [12]: 27%; inhibition [2]: 39%
CC(=O)Nc1nc2c([N+](=O)[O-])cccc2n2c(=O)n(-c3ccccc3)nc12		36		0.006		inhibition [12]: 18%
O=C(Nc1nc2ccccc2n2c(=O)n(-c3ccccc3)nc12)C(c1ccccc1)c1ccccc1	0.00081			0.0102	58	Ki [11]: 0.0188 µM; Ki [13]: 1.16 µM
COc1ccc(-n2nc3c(NC(=O)c4ccccc4)nc4c(N)cccc4n3c2=O)cc1	0.001		45	0.393	24	IC50 [7]: > 1 µM; inhibition [8]: 17%; IC50 [9]: 0.0086 µM
COc1ccc(-n2nc3c(NC(C)=O)nc4c(N)cccc4n3c2=O)cc1	0.0055			0.363		Ki [4]: 1.1 µM; Ki [11]: 2.7 µM
O=C(Nc1nc2c([N+](=O)[O-])cccc2n2c(=O)n(-c3ccccc3)nc12)C(c1ccccc1)c1ccccc1	0.0149	29.5	12	0.0039	49	
O=C(Nc1nc2ccccc2n2c(=O)n(-c3ccc([N+](=O)[O-])cc3)nc12)C(c1ccccc1)c1ccccc1		0				inhibition [12]: 13%; inhibition [2]: 30%
COc1ccc(-n2nc3c(N(C(=O)c4ccccc4)C(=O)c4ccccc4)nc4ccccc4n3c2=O)cc1	0.00329		2	0.175	26	IC50 [7]: > 1 µM; inhibition [8]: 13%; IC50 [9]: 0.0318 µM
